Measurements from ChEMBL document CHEMBL1201862, “PubChem BioAssay data set” (2004).
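Cultured in 96-well plates, cells were exposed to test compound for 48 hours across five concentrations. At the GI50, growth is halved.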 Active and inactive are the calls of the source. No stated cut-off is given here; in the data, active = GI50 up to about 1.1 µM and inactive = higher.

Legend:
Assay in all cases: NCI tumour cell line growth inhibition, 48 h
HOP-18 = tested on: HOP-18
OVCAR-4 = tested on: OVCAR-4
UO-31 = tested on: UO-31
M14 = tested on: M14
SK-MEL-28 = tested on: SK-MEL-28
HT-29 = tested on: HT-29
NCI-H23 = tested on: NCI-H23
A498 = tested on: A498
IGROV-1 = tested on: IGROV-1
COLO 205 = tested on: COLO 205
KM-20L2 = tested on: KM-20L2
OVCAR-3 = tested on: OVCAR-3
SF-268 = tested on: SF-268
CAKI-1 = tested on: CAKI-1
UACC-257 = tested on: UACC-257
ACHN = tested on: ACHN
SF-295 = tested on: SF-295
HCT-15 = tested on: HCT-15
SF-539 = tested on: SF-539
HOP-62 = tested on: HOP-62
OVCAR-8 = tested on: OVCAR-8
SK-MEL-5 = tested on: SK-MEL-5
SN12C = tested on: SN12C
NCI-H226 = tested on: NCI-H226
RXF 393 = tested on: RXF 393
SNB-78 = tested on: SNB-78
TK-10 = tested on: TK-10
EKVX = tested on: EKVX
UACC-62 = tested on: UACC-62
SNB-19 = tested on: SNB-19
Malme-3M = tested on: Malme-3M
RPMI-8226 = tested on: RPMI-8226
HCT-116 = tested on: HCT-116
KM12 = tested on: KM12
NCI-H522 = tested on: NCI-H522
786-0 = tested on: 786-0
K562 = tested on: K562
SK-OV-3 = tested on: SK-OV-3
SNB-75 = tested on: SNB-75
M19-MEL = tested on: M19-MEL
A549 = tested on: A549
U-251 = tested on: U-251
CCRF-CEM = tested on: CCRF-CEM
DMS-273 = tested on: DMS-273
HCC 2998 = tested on: HCC 2998
OVCAR-5 = tested on: OVCAR-5
SW-620 = tested on: SW-620
DMS-114 = tested on: DMS-114
MOLT-4 = tested on: MOLT-4
NCI-H460 = tested on: NCI-H460
LOX IMVI = tested on: LOX IMVI
HL-60 = tested on: HL-60
SK-MEL-2 = tested on: SK-MEL-2
LXFL 529 = tested on: LXFL 529
DLD-1 = tested on: DLD-1
XF498 = tested on: XF498
HOP-92 = tested on: HOP-92

Measured: GI50

O=C1c2ccccc2C2(O)Nc3c(ccc4ccccc34)C12O (stereo unspecified)
inactive: HOP-18 > 100 µM | OVCAR-4 > 100 µM | UO-31 95.5 µM | M14 > 100 µM | SK-MEL-28 > 100 µM | HT-29 > 100 µM | NCI-H23 > 100 µM | A498 > 100 µM | IGROV-1 > 100 µM | COLO 205 > 100 µM | KM-20L2 > 100 µM | OVCAR-3 99.5 µM | SF-268 > 100 µM | CAKI-1 > 100 µM | UACC-257 > 100 µM | ACHN > 100 µM | SF-295 > 100 µM | SF-539 > 100 µM | HOP-62 > 100 µM | OVCAR-8 > 100 µM | SK-MEL-5 72.8 µM | SN12C > 100 µM | NCI-H226 > 100 µM | RXF 393 > 100 µM | SNB-78 > 100 µM | TK-10 > 100 µM | EKVX > 100 µM | UACC-62 > 100 µM | SNB-19 85.3 µM | Malme-3M > 100 µM | RPMI-8226 > 100 µM | HCT-116 > 100 µM | KM12 87.1 µM | NCI-H522 95.5 µM | 786-0 > 100 µM | K562 61.4 µM | SK-OV-3 > 100 µM | SNB-75 > 100 µM | M19-MEL > 100 µM | A549 > 100 µM | U-251 > 100 µM | CCRF-CEM 55.3 µM | DMS-273 > 100 µM | HCC 2998 > 100 µM | OVCAR-5 > 100 µM | SW-620 > 100 µM | DMS-114 60 µM | MOLT-4 39 µM | NCI-H460 > 100 µM | LOX IMVI > 100 µM | HL-60 97.1 µM | SK-MEL-2 > 100 µM | LXFL 529 67.8 µM | DLD-1 > 100 µM
> 100 µM: HCT-15

N#CCCN(c1ccc(/C=N/c2nc(-c3ccccc3)cs2)cc1)S(=O)(=O)c1ccccc1
inactive: OVCAR-4 64.7 µM | UO-31 23.6 µM | M14 81.7 µM | SK-MEL-28 85.3 µM | HT-29 > 100 µM | NCI-H23 78.9 µM | A498 75.9 µM | IGROV-1 > 100 µM | COLO 205 > 100 µM | KM-20L2 > 100 µM | OVCAR-3 39.8 µM | SF-268 56.1 µM | CAKI-1 25.8 µM | UACC-257 96.4 µM | SF-295 46.2 µM | SF-539 > 100 µM | HOP-62 96.6 µM | OVCAR-8 > 100 µM | SK-MEL-5 35 µM | SN12C 92.5 µM | SNB-78 > 100 µM | TK-10 86.5 µM | EKVX 37.5 µM | UACC-62 59.2 µM | SNB-19 > 100 µM | Malme-3M > 100 µM | RPMI-8226 44.4 µM | HCT-116 75.3 µM | KM12 > 100 µM | NCI-H522 31.6 µM | 786-0 > 100 µM | K562 35.6 µM | SK-OV-3 > 100 µM | SNB-75 19.2 µM | M19-MEL > 100 µM | A549 76.2 µM | U-251 > 100 µM | CCRF-CEM 48.5 µM | DMS-273 > 100 µM | HCC 2998 64.9 µM | OVCAR-5 > 100 µM | SW-620 83.8 µM | DMS-114 39.4 µM | MOLT-4 44.7 µM | LOX IMVI > 100 µM | HL-60 30.8 µM | XF498 > 100 µM | SK-MEL-2 86.9 µM | LXFL 529 56.9 µM | DLD-1 96.8 µM
> 100 µM: HCT-15

CC1=C(C(=O)CC(=O)C(=O)Nc2cccc(C)c2C)Sc2ccccc2N1
inactive: HOP-18 > 100 µM | OVCAR-4 > 100 µM | UO-31 > 100 µM | M14 > 100 µM | SK-MEL-28 > 100 µM | HT-29 > 100 µM | NCI-H23 > 100 µM | IGROV-1 > 100 µM | OVCAR-3 > 100 µM | SF-268 > 100 µM | CAKI-1 > 100 µM | UACC-257 > 100 µM | ACHN > 100 µM | SF-295 > 100 µM | SF-539 > 100 µM | HOP-62 > 100 µM | OVCAR-8 > 100 µM | SK-MEL-5 > 100 µM | SN12C > 100 µM | NCI-H226 > 100 µM | RXF 393 > 100 µM | SNB-78 > 100 µM | TK-10 > 100 µM | EKVX > 100 µM | UACC-62 > 100 µM | SNB-19 > 100 µM | Malme-3M > 100 µM | RPMI-8226 > 100 µM | HCT-116 > 100 µM | KM12 > 100 µM | NCI-H522 > 100 µM | 786-0 > 100 µM | K562 > 100 µM | SK-OV-3 > 100 µM | HOP-92 > 100 µM | M19-MEL > 100 µM | A549 > 100 µM | U-251 > 100 µM | CCRF-CEM > 100 µM | HCC 2998 > 100 µM | OVCAR-5 > 100 µM | SW-620 > 100 µM | DMS-114 > 100 µM | MOLT-4 > 100 µM | NCI-H460 > 100 µM | LOX IMVI > 100 µM | HL-60 > 100 µM | SK-MEL-2 > 100 µM | LXFL 529 > 100 µM | DLD-1 > 100 µM
> 100 µM: HCT-15

COc1ccc(OC)c(NC(=O)C2=C(C)NC(C)=C(C(=O)Nc3cc(OC)ccc3OC)C2c2ccccc2)c1
> 100 µM: HCT-15
inactive: OVCAR-4 > 100 µM | UO-31 35.6 µM | M14 > 100 µM | SK-MEL-28 22.6 µM | HT-29 > 100 µM | NCI-H23 > 100 µM | A498 > 100 µM | IGROV-1 > 100 µM | COLO 205 > 100 µM | KM-20L2 86.5 µM | OVCAR-3 > 100 µM | SF-268 63.7 µM | CAKI-1 > 100 µM | UACC-257 > 100 µM | ACHN 30 µM | SF-295 80.4 µM | SF-539 > 100 µM | HOP-62 > 100 µM | OVCAR-8 > 100 µM | SK-MEL-5 51.3 µM | SN12C > 100 µM | RXF 393 > 100 µM | SNB-78 > 100 µM | TK-10 > 100 µM | EKVX > 100 µM | UACC-62 > 100 µM | SNB-19 > 100 µM | Malme-3M > 100 µM | RPMI-8226 4.91 µM | HCT-116 45.5 µM | KM12 91.4 µM | NCI-H522 > 100 µM | 786-0 > 100 µM | K562 83 µM | SK-OV-3 > 100 µM | SNB-75 22.8 µM | HOP-92 6.41 µM | M19-MEL > 100 µM | A549 85.1 µM | U-251 > 100 µM | CCRF-CEM 48.4 µM | DMS-273 > 100 µM | HCC 2998 > 100 µM | OVCAR-5 > 100 µM | SW-620 > 100 µM | DMS-114 96.2 µM | MOLT-4 6.5 µM | NCI-H460 > 100 µM | LOX IMVI > 100 µM | SK-MEL-2 > 100 µM | LXFL 529 > 100 µM | DLD-1 21.7 µM
active: HOP-18 1.04 µM

COC(=O)C1[C@H](c2cc(OC)c(OC)c(OC)c2)OC(=O)C1(C(=O)OC)C(=O)c1ccc2c(c1)OCO2 (stereo partly specified)
inactive: OVCAR-4 > 100 µM | UO-31 > 100 µM | M14 > 100 µM | SK-MEL-28 > 100 µM | HT-29 > 100 µM | NCI-H23 > 100 µM | A498 > 100 µM | IGROV-1 > 100 µM | COLO 205 > 100 µM | KM-20L2 > 100 µM | OVCAR-3 > 100 µM | SF-268 > 100 µM | CAKI-1 > 100 µM | UACC-257 > 100 µM | ACHN > 100 µM | SF-295 > 100 µM | SF-539 > 100 µM | HOP-62 > 100 µM | OVCAR-8 > 100 µM | SK-MEL-5 > 100 µM | SN12C > 100 µM | NCI-H226 > 100 µM | RXF 393 > 100 µM | SNB-78 > 100 µM | TK-10 > 100 µM | EKVX > 100 µM | UACC-62 > 100 µM | SNB-19 > 100 µM | Malme-3M > 100 µM | RPMI-8226 > 100 µM | HCT-116 > 100 µM | KM12 > 100 µM | NCI-H522 > 100 µM | 786-0 > 100 µM | K562 > 100 µM | SK-OV-3 > 100 µM | SNB-75 > 100 µM | HOP-92 > 100 µM | M19-MEL > 100 µM | A549 > 100 µM | U-251 > 100 µM | CCRF-CEM > 100 µM | DMS-273 > 100 µM | HCC 2998 > 100 µM | OVCAR-5 > 100 µM | SW-620 > 100 µM | DMS-114 > 100 µM | MOLT-4 > 100 µM | NCI-H460 > 100 µM | LOX IMVI > 100 µM | HL-60 > 100 µM | XF498 > 100 µM | LXFL 529 > 100 µM | DLD-1 > 100 µM
> 100 µM: HCT-15
